# Laboratory results reported in patent publication US20230398130A1, “METHODS AND COMPOSITIONS FOR DIFFERENTIATING STEM CELLS” (Massachusetts Institute of Technology, priority 2020, published 2023).
# Entries after “also recorded” stand apart in the source; their conditions may differ. Like-named read-outs stand apart in the source and are kept apart here.
# Legend:
# [1] = test system: ISC-enriched organoid cultures; type: cell-based
# Description: Using the ISC-enriched organoid cultures, Applicants sought to assess the role of vitamin D's multiple metabolites on ISC proliferation and differentiation in vitro. Treatment of ISC-enriched organoid cultures with multiple vitamin D metabolites at 50 nM drives a reduction in cell number after 4 days of exposure (FIG. 45A). This reduction is attributed to reduced ISC self-renewal and differentiation to terminal epithelial cell types. To confirm increased differentiation of ISC-enriched organoids, mRNA markers of epithelial cells were assessed via quantitative PCR (FIG. 45B). […] By enhancing ISC differentiation, Applicants hypothesized that it may be possible to enhance barrier repair or integrity in IBD. Such effect could act synergistically with other known effects of vitamin D, and provide enhanced therapeutic benefit.
# After observing that calcitriol, the primary active vitamin D metabolite, drove the most profound differentiation effect on in vitro ISC cultures, Applicants sought to investigate whether or not this effect is dose-dependent. Again, Applicants used the ISC-enriched organoid culture, and exposed varying concentrations of calcitriol for 4-day treatment periods.
# Given that WNT signaling is central to ISC self-renewal and maintenance, Applicants investigated the role of calcitriol on ISC proliferation and WNT signal activity.
# [2] = test system: Paneth cells; assay: Flow cytometry of 3D-cultured intestinal organoids (ENR+CD, 6 days): Paneth cell fraction (lysozyme-positive, CD24-mid); type: cell-based, murine; conditions: ENR+CD 6 days; for Paneth cell proportion in organoids: 2 ng/mL Leptomycin B
# Description: Flow cytometry analysis (3D culture). ISC-enriched organoids cultured in 3D Matrigel with ENRCV media were passaged to 24-well plate in 3D Matrigel with ENRCV. At day zero, media were replaced to ENRCD with or without indicated compounds, and media were replaced every other day. […] Flow cytometry was performed using an LSR Fortessa (BD; Koch Institute Flow Cytometry Core at MIT). The data were analyzed using FlowJo v10 software.
# Single live cells were selected by several gating strategies and Paneth cells were identified as lysozyme-high, CD24-mid, side scatter-high (SSC-high) (FIG. 27E). […] To evaluate whether the culture media supplements C and D may alter the effects of the 6 hits, Applicants also performed lysozyme assay in the canonical ENR culture condition in 3-D (because Paneth cells exist in an immature state within ENR, Applicants were unable to robustly quantify Paneth cell number via flow cytometry).
# (§1) Flow cytometry. ISC-enriched organoids in 3D Matrigel culture were passaged to a 48-well plate and induced differentiation for 6 days by ENR+CD media containing DMSO or each drug indicated in the figures. DMSO- or drug-containing media were changed every other day. […] After vigorous pipetting and incubation at 37° C. for 15 min, the cell solution was diluted twice with basal media and centrifuged at 300 rcf for 3 min. […] The cell solution was centrifuged again at 300 rcf for 3 min at 4° C. to pellet the cells. […] Cells were centrifuged again for 3 min at 300 rcf and blocked with staining buffer (FACS buffer containing 0.5% Tween20 (Sigma, P2287)) for 15 min at RT in the dark. […] Flow cytometry was performed using an LSR Fortessa (BD; Koch Institute Flow Cytometry Core at MIT). Flow cytometry data were analyzed using FlowJo X v10.6.1 software.
# Live Paneth cells were identified as LYZ-high, CD24-mid, side scatter-high (SSC-high) (FIG. 50F).
# as §1, with “organoids in 3-D Matrigel culture” for “organoids in 3D Matrigel culture”, “to a 24- or 48-well plate” for “to a 48-well plate”
# [3] = test system: Paneth cells; assay: Immunofluorescent imaging of organoids: LYZ+ cells per organoid area; type: cell-based, murine; conditions: 2 ng/mL Leptomycin B, ENR+CD 3 days
# Description: Immunofluorescent imaging. For immunofluorescence staining of organoids, intestinal organoids in Matrigel were fixed with 4% paraformaldehyde, then transferred to centrifuge tube. After washing with PBS, the isolated organoids were permeabilized with 1% Triton X followed by incubation with blocking buffer (1% BSA+3% Donkey Serum+0.2% Triton X in PBS) at RT. The organoids were then stained with primary antibodies and fluorescent dye-labeled secondary antibodies as well as with DAPI. Slides were covered with […]® Mounting Media (VECTOR). The following primary and secondary antibodies were used for the staining: rabbit anti-Lysozyme (1:1000, Thermo Fisher Scientific), rat anti-E-cadherin (1:1000, Thermo Fisher Scientific), Alexa Fluor 488 and 568 secondary antibodies (1:1000, Invitrogen). Images were acquired with a confocal laser scanning microscope (Nikon Eclipse 90i). For the analysis of Lysozyme+ cells per organoid area, the number of counted Lysozyme+ cells were normalized to measured organoid surface area. Image J was used for the data analysis.
# [4] = test system: lysozyme (LYZ); assay: Western blotting of lysozyme in 3D-cultured intestinal organoids; type: cell-based, murine; conditions: organoids cultured 6 days in ENR+CV, ENR+CD or ENR
# Text: Western blotting. ISC-enriched organoids cultured in 3D Matrigel with ENRCV media were passaged to 24-well plate in 3D Matrigel with ENRCV. At day zero, media were replaced to ENR or ENRCD with or without indicated compounds, and media were replaced every other day. At day six, cells were harvested from Matrigel by mechanical disruption and suspended in basal media. Cell pellets were lysed with Pierce© IP lysis buffer (ThermoFisher, 87787) containing Halt™ Protease Inhibitor Cocktail, EDTA-Free (ThermoFisher, 87785) after 3-minute centrifuge at 300×g at 4° C. Cell extracts were resolved by NuPAGE© SDS-PAGE Gel system (ThermoFisher) and electroblotted onto polyvinylidene difluoride membranes using Criterion™ Blotter (Biorad). The membranes were blocked with 2% Blotting-Grade Blocker (Biorad, 1706404) in TBS-T (50 mM Tris-HCl, 150 mM NaCl, and 0.1% Tween 20, pH 8.0) and then probed with appropriate antibodies. Detection was performed using ECL Select™ Western Blotting Detection Reagent (Amersham, 45-000-999) and ImageQuant LAS4000 (GE Healthcare).
# Western blotting. Organoid-containing gel was homogenized in basal medium and centrifuged at 300 rcf for 3 min. Organoid pellet was lysed with ice-cold Pierce IP Lysis Buffer (Thermo Fisher Scientific, #87787) containing Halt Protease Inhibitor Cocktail, EDTA-Free (Thermo Fisher Scientific, #87785) and incubated on ice for 20 min. The lysate was centrifuged at 17,000 rcf for 10 min, and the supernatant was combined with NuPAGE LDS Sample Buffer (Thermo Fisher Scientific, NP0007). Protein concentration was determined by Pierce 660 nm Protein Assay (Thermo Fisher Scientific, #22660) and normalized to the lowest concentration among each sample set. […] Chemiluminescent signals were detected by LAS4000 (GE Healthcare) using Amersham ECL Select Western Blotting Detection Reagent (GE Healthcare, #45-000-999), and total protein signals were obtained by Odyssey Imaging System (LI-COR Biosciences) using REVERT Total Protein Stain Kit (LI-COR Biosciences, #926-11010).
# [5] = test system: ISC-enriched organoids; assay: Primary screen, 384-well 2.5-D organoid differentiation (ENR+CD, 6 days, Target Selective Inhibitor Library, vs whole-plate median): ATP (CellTiter-Glo 3D, CTG); conditions: standard z score of FC
# [6] = test system: ISC-enriched organoids; assay: Secondary (validation) screen, 384-well 2.5-D, ENR+CD 6 days, n=8 wells, vs ENR+CD+DMSO control: ATP (CTG); type: cell-based, murine
# Description: (§2) Drugs were tested at a narrowed dose range around each treatment's identified optimal dose from the primary screen (4× below, 2× above and below).
# (§3) High-throughput screening.
# (§4) Secondary lysozyme secretion assay screen. Confirmatory secondary screening with primary hits was performed using the above 384-well plate method. The screen was conducted with 4-plate replicates with a base media of ENR+CD. Media was supplemented with compound at day 0 and day 3 (n=8 well replicates per dose) at four different doses: two-fold above, two-fold below, and four-fold below the optimal final dose for each respective treatment. Additionally, each plate carried a large number of ENR+DMSO or ENR+CD+DMSO (vehicle) control wells (n=100 for ATP, and n=25 for LYZ.NS and LYZ.S) for robust normalization. ATP, non-stimulated lysozyme activity and CCh-stimulated lysozyme activity was again measured and the collected data was again processed in a custom R-script, per primary screen with slight modification. Values were log10 transformed, and a plate-wise FC was calculated for each well based on the median value of ENR+CD+DMSO (vehicle) control wells to normalize plate to plate variability.
# [7] = test system: ISC-enriched organoids; assay: Secondary (validation) screen, 384-well 2.5-D, ENR+CD 6 days, n=8 wells, vs ENR+CD+DMSO control: basal lysozyme secretion (LYZ.NS); type: cell-based, murine
# Description: as §2, §3, §4
# [8] = test system: ISC-enriched organoids; assay: Secondary (validation) screen, 384-well 2.5-D, ENR+CD 6 days, n=8 wells, vs ENR+CD+DMSO control: carbachol-induced lysozyme secretion (LYZ.S); type: cell-based, murine
# Description: as §2, §3, §4
# [9] = calcitriol 1 nM to 100 nM, 4-day treatment
smiles,measurement,setting,value
"C=C1/C(=C\C=C2/CCC[C@]3(C)[C@@H]([C@H](C)CCCC(C)(C)O)CC[C@@H]23)C[C@@H](O)C[C@@H]1O [calcitriol, 1α,25-dihydroxyvitamin D3]",ISC differentiation (mRNA markers of epithelial cells),"[1]; 50 nM, 4 days, vs control culture",having the most profound effect
same,cell number,[1]; [9],a decrease in cell number
same,"markers of intestinal epithelial cells (mRNA), ISC differentiation",[1]; [9],an increase in markers of intestinal epithelial cells in a dose-dependent manner
same,"markers of intestinal epithelial cells (mRNA), ISC differentiation","[1]; calcitriol 1 nM to 100 nM, 4-day treatment, listed as Calcitriol","dose-dependent differentiation effect, primarily to goblet cells"
same,cell cycle markers,"[1]; calcitriol, 4 days",a weak connection to cell cycle inhibition
same,proliferation (Ki67),"[1]; calcitriol, 4 days, all doses",minimal change in proliferation at all doses
same,LGR5 expression,"[1]; increasing calcitriol dosage, 4 days",a clear reduction in LGR5
CCC(=C/[C@H](C)C/C=C/C(C)=C/[C@@H](C)C(=O)[C@@H](C)[C@H](O)[C@@H](C)C/C(C)=C/C(=O)O)/C=C/[C@@H]1OC(=O)C=C[C@@H]1C [Leptomycin B],Paneth cell proportion in organoids,[2],statistically significant increases in Paneth cell representation
same,Paneth cell proportion in organoids,[2]; listed as leptomycin B,increased the proportion of PC; also recorded: increasing the proportion of Paneth cells
same,proportion of Paneth cells (IF imaging),[3],increasing the proportion of Paneth cells
same,LYZ abundance per unit protein (Western blotting),[4],appreciably increase LYZ abundance
"Cc1cn(-c2cc(NC(=O)c3ccc(C)c(Nc4nccc(-c5cccnc5)n4)c3)cc(C(F)(F)F)c2)cn1 [Nilotinib (AMN-107), Nilotinib]",mature Paneth cell population within organoids,"[2]; hit compound at most potent dose from 2.5-D screening, 3-D culture, vs control",significantly decreased Paneth abundance
same,total cell number,"[2]; hit compound at most potent dose, 3-D culture",significantly increasing total cell number
same,Z.CTG,[5]; Dose 0.08 uM,0.769
same,Z.CTG,[5]; Dose 0.40 uM,0.831
same,Z.CTG,[5]; Dose 2.00 uM,0.577
same,Z.CTG,[5]; Dose 10.00 uM,−0.029
same,Z.CTG,[6]; Dose 0.10 uM,0.830
same,repSSMD.CTG,[6]; Dose 0.10 uM,0.571
same,Z.CTG,[6]; Dose 0.20 uM,1.098
same,repSSMD.CTG,[6]; Dose 0.20 uM,0.777
same,Z.CTG,[6]; Dose 0.80 uM,2.104
same,repSSMD.CTG,[6]; Dose 0.80 uM,1.535
same,Z.CTG,[6]; dose 0.40 uM,1.275
same,repSSMD.CTG,[6]; dose 0.40 uM,0.902
same,Z.LYZ.NS,[7]; Dose 0.10 uM,0.734
same,repSSMD.LYZ.NS,[7]; Dose 0.10 uM,1.309
same,Z.LYZ.NS,[7]; Dose 0.20 uM,1.283
same,repSSMD.LYZ.NS,[7]; Dose 0.20 uM,1.683
same,Z.LYZ.NS,[7]; Dose 0.80 uM,1.317
same,repSSMD.LYZ.NS,[7]; Dose 0.80 uM,1.063
same,Z.LYZ.NS,[7]; dose 0.40 uM,0.805
same,repSSMD.LYZ.NS,[7]; dose 0.40 uM,1.064
same,Z.LYZ.S,[8]; Dose 0.10 uM,0.339
same,repSSMD.LYZ.S,[8]; Dose 0.10 uM,0.652
same,Z.LYZ.S,[8]; Dose 0.20 uM,0.897
same,repSSMD.LYZ.S,[8]; Dose 0.20 uM,1.324
same,Z.LYZ.S,[8]; Dose 0.80 uM,1.099
same,repSSMD.LYZ.S,[8]; Dose 0.80 uM,0.953
same,Z.LYZ.S,[8]; dose 0.40 uM,−0.053
same,repSSMD.LYZ.S,[8]; dose 0.40 uM,−0.055
